Measurements taken from patent US9493460B2, “Diimide compounds” (UCL BUSINESS PLC, priority 2013, dated 2016).
Where two headings read alike, the source gives them in different places.

Tests used:
[1] = system: WI38 normal human fibroblast cells; assay: SRB growth inhibition assay, 96 hr exposure, WI38; assay type: cell-based
Description: (§1) Human cancer cell lines, MCF7 (breast), A549 (lung), Mia-PaCa2, PANC1 and HPAC (pancreatic), RCC4 and 786-0 renal, and the somatic human cell line WI-38 (lung fibroblast) were purchased from ATCC. Cell lines were maintained in appropriate medium supplemented with 10% foetal bovine serum (Invitrogen, UK), 2 mM L-glutamine (Invitrogen, Netherlands), and other components as specified by the suppliers. Cell lines were maintained at 37° C., 5% CO2 and routinely passaged. Drugs were dissolved in DMSO and filtered through 0.22 μm pore-size filter units before addition to cell line appropriate media. Cellular growth inhibition was measured using the sulforhodamine B (SRB) assay in 96 well plates as described previously.^1,2 Fifty percent inhibitory concentrations (IC50) were determined by taking the mean absorbance at 540 nm for each drug concentration expressed as a percentage of the absorbance of untreated control wells.
The anti-proliferative activity of the group of nine ND derivatives was assessed using the SRB assay following 96 h exposure to 2-fold serial dilutions of each compound (Table 2) in a panel of cancer cell lines together with a normal fibroblast line. […] In contrast the morpholine compounds all show sub-μM anti-proliferative activity in at least some of the cancer cell lines used and the two compounds 3d, 3h with n=3 —(CH2)n— linkers to the morpholine groups, show particularly potent activity in the Mia-PaCa2 and PANC1 pancreatic carcinoma and A549 lung adenocarcinoma cell lines (IC50 values of 10-20 nM). […]

duplex DNA (T-loop) = assay: FRET melting assay, duplex DNA; assay type: binding; details: for change in melting temperature Tloop 1 uM: 1 uM ligand; for change in melting temperature Tloop 2 uM: 2 uM ligand
Text: (§2) The ability of the naphthalene diimide compounds to stabilize DNA sequences was investigated using a fluorescence resonance energy transfer (FRET) assay modified to be used as a high-throughput screen in a 96-well format. Several quadruplex sequences were studied (the human telomeric G-quadruplex DNA sequence 5′-FAM-d(GGG[TTAGGG]3)-TAMRA-3′ and the duplex sequence 5′-FAM-dTATAGCTATA-HEG-TATAGCTATA-TAMRA-3′ (HEG linker: [(—CH2—CH2—O—)6])), as well as two overlapping sequences from the HSP90 promoter region (HSP90a and HSP90b):
(§3) The labelled oligonucleotides have attached to them the donor fluorophore FAM: 6-carboxyfluorescein and the acceptor fluorophore TAMRA: 6-carboxytetramethylrhodamine. The FRET probe sequences were diluted from stock to the correct concentration (400 nM) in a 60 mM potassium cacodylate buffer (pH 7.4) and then annealed by heating to 85° C. for 10 min, followed by cooling to room temperature in the heating block. The compound was stored as a 10 mM stock solution in DMSO; final solutions (at 2×concentration) were prepared using 10 mM HCl in the initial 1:10 dilution, after which 60 mM potassium cacodylate buffer (pH 7.4) was used in all subsequent steps. The maximum HCl concentration in the reaction volume (at a ligand concentration of 20 μM) is thus 200 μM, well within the range of the buffer used. Relevant controls were also performed to check for interference with the assay. 96-Well plates (MJ Research, Waltham, Mass.) were prepared by aliquoting 50 μl of the annealed DNA into each well, followed by 50 μl of the compound solutions. Measurements were made on a DNA Engine Opticon (MJ Research) with excitation at 450-495 nm and detection at 515-545 nm. Fluorescence readings were taken at intervals of 0.5° C. in the range 30-100° C., with a constant temperature being maintained for 30 s prior to each reading to ensure a stable value. Final analysis of the data was carried out using a script written in the program Origin 7.0 (OriginLab Corp., Northampton, Mass.). The advanced curve-fitting function in Origin 7.0 was used for calculation of ΔTm values. All determinations were performed in triplicate or better. Esds in ΔTm are ±0.1° C.
(§4) The T-loop sequence represents duplex DNA.

[2] = system: HSP90b promoter quadruplex sequence; assay: FRET melting assay, Hsp90B quadruplex; assay type: binding; details: for change in melting temperature Hsp90B 1 uM: 1 uM ligand; for change in melting temperature Hsp90B 2 uM: 2 uM ligand
Text: as §2
as §3, with “±0.1° C. […]” for “±0.1° C.”

A549 (lung) cells = assay: SRB growth inhibition assay, 96 hr exposure, A549; assay type: cell-based, human
Description: as §1
(§5) The anti-proliferative activity of the group of nine ND derivatives was assessed using the SRB assay following 96 h exposure to 2-fold serial dilutions of each compound (Table 2) in a panel of cancer cell lines together with a normal fibroblast line. […] In contrast the morpholine compounds all show sub-μM anti-proliferative activity in at least some of the cancer cell lines used and the two compounds 3d, 3h with n=3 —(CH2)n— linkers to the morpholine groups, show particularly potent activity in the Mia-PaCa2 and PANC1 pancreatic carcinoma and A549 lung adenocarcinoma cell lines (IC50 values of 10-20 nM).
(§6) Next a series of structural isomers were tested.

786-O (renal) cells = assay: SRB growth inhibition assay, 96 hr exposure, 786-O; assay type: cell-based, human; details: SRB assay, 96 hr exposure
Description: as §1, §5, §6

[3] = system: MiaPaCa2 (pancreatic) cells; assay: SRB growth inhibition assay, MiaPaCa2; assay type: cell-based, human; details: SRB assay, 96 hr exposure
Description: as §1, §5
Dose-response curves were used to guide the choice of compound concentration and time-points for the array experiments (FIG. 2a). […] To explore this response continuum the transcriptional signature of cells exposed for 24 h to 20 nM, 40 nM, 80 nM concentrations of 3d, or solvent alone as control, was analysed as described in Materials and Methods.
as §6

RCC4 (renal) cells = assay: SRB growth inhibition assay, 96 hr exposure, RCC4; assay type: cell-based, human
Description: as §1, §5, §6

Panc1 (pancreatic) cells = assay: SRB growth inhibition assay, 96 hr exposure, Panc1; assay type: cell-based, human
Description: as §1, §5, §6

[4] = system: human telomeric G-quadruplex DNA (F21T); assay: FRET melting assay, human telomeric quadruplex; assay type: binding; details: for change in melting temperature F21T 1 uM: 1 uM ligand; for change in melting temperature F21T 2 uM: 2 uM ligand
Text: as §2, §3
The ability of compounds 3a-h to stabilize a human telomeric quadruplex was assessed by a high-throughput FRET (Fluorescence Resonance Energy Transfer) melting technique. […] None of the furan tetrahydrofuran, pyranose or acyclic ether compounds has any effect on quadruplex or duplex stability.
as §4

MCF-7 (breast) cells = assay: SRB growth inhibition assay, 96 hr exposure, MCF-7; assay type: cell-based, human
Description: as §1, §5, §6

[5] = system: HSP90a promoter quadruplex sequence; assay: FRET melting assay, Hsp90A quadruplex; assay type: binding; details: for change in melting temperature Hsp90A 1 uM: 1 uM ligand; for change in melting temperature Hsp90A 2 uM: 2 uM ligand
Text: as §2
as §3, with “±0.1° C. […]” for “±0.1° C.”

[6] = system: panel of cancer cell lines; assay: SRB assay, panel of cancer cell lines and normal fibroblast line; assay type: cell-based, human; details: 96 h exposure
Description: as §1, §5

Structure (SMILES) | IC50 [1] [nM] | change in melting temperature Tloop 1 uM (duplex DNA (T-loop)) | change in melting temperature Tloop 2 uM (duplex DNA (T-loop)) | change in melting temperature Hsp90B 1 uM [2] | change in melting temperature Hsp90B 2 uM [2] | IC50 (A549 (lung) cells; 96 hr exposure) [nM] | IC50 (786-O (renal) cells) [nM] | IC50 [3] [nM] | IC50 (RCC4 (renal) cells) [nM] | IC50 (Panc1 (pancreatic) cells; 96 hr exposure) [nM] | change in melting temperature F21T 1 uM [4] | change in melting temperature F21T 2 uM [4] | IC50 (MCF-7 (breast) cells) [nM] | change in melting temperature Hsp90A 1 uM [5] | change in melting temperature Hsp90A 2 uM [5] | further results
CN1CCN(CCCN2C(=O)c3cc(NCC4CCCO4)c4c5c(cc(NCC6CCCO6)c(c35)C2=O)C(=O)N(CCCN2CCN(C)CC2)C4=O)CC1 (racemic) [SKM038] | 2300 ± 80 | 0 | 0 | 13 | 17 | 160 ± 2 | 390 ± 20 | 95 ± 3 | 3000 ± 170 | 1500 ± 170 | <2 | 15 | 560 ± 34 | 21 | 23 | –
CN1CCN(CCCN2C(=O)c3cc(NCC4CCOCC4)c4c5c(cc(NCC6CCOCC6)c(c35)C2=O)C(=O)N(CCCN2CCN(C)CC2)C4=O)CC1 [SKM052] | 2800 ± 230 | 0 | 0 | 3 | 23 | 460 ± 10 | 290 ± 2 | 137 ± 31 | 2200 ± 15 | 1100 ± 130 | <2 | 22 | 510 ± 17 | 2 | 27 | –
CN1CCN(CCCN2C(=O)c3cc(NCCCN4CCOCC4)c4c5c(cc(NCCCN6CCOCC6)c(c35)C2=O)C(=O)N(CCCN2CCN(C)CC2)C4=O)CC1 [SKM029] | 300 ± 23 | 5 | 9 | 30 | 34 | 7 ± 1 | 440 ± 70 | 50 ± 2 | 610 ± 70 | 2 ± 1 | 29 | 34 | 14 ± 1 | 34 | 36 | –
CN1CCN(CCCNc2cc3c4c(c(NCCCN5CCN(C)CC5)cc5c4c2C(=O)N(CC2CCCO2)C5=O)C(=O)N(CC2CCCO2)C3=O)CC1 (racemic) [Compound 3a, 4,9-bis((3-(4-methylpiperazin-1-yl)propyl)amino)-2,7-bis((tetrahydrofuran-2-yl)methyl)benzo[lmn][3,8]phenanthroline-1,3,6,8(2H,7H)-tetraone] | – | – | – | – | – | – | – | – | – | – | – | – | – | – | – | anti-proliferative activity (in words) [6]: devoid of significant anti-proliferative activity in all except the Mia-PaCa2 and A549 lines
COCCCNc1cc2c3c(c(NCCCOC)cc4c3c1C(=O)N(CCCN1CCN(C)CC1)C4=O)C(=O)N(CCCN1CCN(C)CC1)C2=O [SKM022] | > 25000 | 0 | 0 | 22 | 26 | 5750 ± 510 | 16100 ± 630 | 7050 ± 830 | 7600 ± 10 | 2500 ± 340 | <2 | 16 | 17500 ± 980 | 22 | 24 | –
CN1CCN(CCCNc2cc3c4c(c(NCCCN5CCN(C)CC5)cc5c4c2C(=O)N(CCCN2CCOCC2)C5=O)C(=O)N(CCCN2CCOCC2)C3=O)CC1 [MM41] | – | 5 | 9 | 29 | 33 | – | – | – | – | – | 27 | 32 | – | 33 | 36 | IC50 ([1]; Homo sapiens, WI-38): 230 ± 10 nM; IC50 (A549 (lung) cells; Homo sapiens, A549, 96 hr exposure): 19 ± 5 nM; IC50 (786-O (renal) cells; Homo sapiens, 786-0): 320 ± 10 nM; IC50 ([3]; Homo sapiens, MIA PaCa-2): 10 ± 10 nM; IC50 (RCC4 (renal) cells; Homo sapiens, RCC4): 560 ± 50 nM; IC50 (Panc1 (pancreatic) cells; Homo sapiens, PANC-1, 96 hr exposure): 3 ± 0.5 nM; IC50 (MCF-7 (breast) cells; Homo sapiens, MCF7): 70 ± 7 nM
